For assay [1], the target named is T1, SHIP1 (Mus musculus, UniProt Q9ES52).
T1 construct: The asterisk in lanes 1 and 3 indicates the ˜145 kD full-length SHIP protein; His tag (C); made in house; host or cells: E. coli Rosetta-Gami 2 (DE3) pLys
T1 sequence (Q9ES52 1-1191): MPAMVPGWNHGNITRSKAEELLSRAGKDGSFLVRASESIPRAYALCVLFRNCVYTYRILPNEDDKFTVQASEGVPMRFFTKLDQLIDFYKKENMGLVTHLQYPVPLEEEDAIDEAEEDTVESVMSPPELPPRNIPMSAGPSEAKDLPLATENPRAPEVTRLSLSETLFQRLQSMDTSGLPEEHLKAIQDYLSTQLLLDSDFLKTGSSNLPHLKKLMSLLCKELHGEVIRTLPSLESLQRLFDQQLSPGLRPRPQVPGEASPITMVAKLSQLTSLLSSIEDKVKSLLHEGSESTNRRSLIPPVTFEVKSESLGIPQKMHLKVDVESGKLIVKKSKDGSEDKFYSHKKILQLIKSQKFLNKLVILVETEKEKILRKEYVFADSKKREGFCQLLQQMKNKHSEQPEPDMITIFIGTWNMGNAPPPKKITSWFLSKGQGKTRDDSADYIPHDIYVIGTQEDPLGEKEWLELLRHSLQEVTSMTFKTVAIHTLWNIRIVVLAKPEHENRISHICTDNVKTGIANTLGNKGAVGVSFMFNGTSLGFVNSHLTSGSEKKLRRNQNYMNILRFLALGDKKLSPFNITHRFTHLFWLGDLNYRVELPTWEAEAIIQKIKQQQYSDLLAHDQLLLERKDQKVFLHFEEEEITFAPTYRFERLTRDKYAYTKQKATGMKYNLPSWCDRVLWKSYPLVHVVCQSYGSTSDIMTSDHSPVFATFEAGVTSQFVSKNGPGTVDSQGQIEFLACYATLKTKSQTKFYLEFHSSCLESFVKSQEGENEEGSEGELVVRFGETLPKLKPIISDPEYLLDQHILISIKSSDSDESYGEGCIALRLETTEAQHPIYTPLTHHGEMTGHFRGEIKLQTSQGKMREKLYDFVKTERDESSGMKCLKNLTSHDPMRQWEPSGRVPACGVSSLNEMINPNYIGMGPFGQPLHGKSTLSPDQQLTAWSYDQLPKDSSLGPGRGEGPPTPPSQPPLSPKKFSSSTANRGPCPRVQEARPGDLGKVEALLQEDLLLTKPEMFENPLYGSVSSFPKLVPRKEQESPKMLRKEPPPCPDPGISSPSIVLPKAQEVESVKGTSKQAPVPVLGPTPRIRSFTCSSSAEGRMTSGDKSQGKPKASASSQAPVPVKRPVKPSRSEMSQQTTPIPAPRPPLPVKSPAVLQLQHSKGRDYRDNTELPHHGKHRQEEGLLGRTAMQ
Nature of the assay: Fluorescence polarization (FP) assay of SHIP1 enzymatic activity. The note with it: 0.1 μg of recombinant SHIP1, FP assay. Format: biochemical. Background: Polarisation of emitted light reports the rotation of a fluorescent probe.

For assay [2], the system named is human multiple myeloma cell lines OPM and RPMI. The assay is described as follows: Apoptosis (annexin positive cells) in multiple myeloma cell lines. Format: cell-based. The following applies: increasing concentrations. The source says: (A) SHIP1 expression in human multiple myeloma (MM) cell lines as presented in the western blot analysis. SHIP is expressed in the human multiple myeloma cell lines U266, RPMI8226 and OPM2. The expression in the MM cell lines is shown relative to that observed in MG63 and HS-5 cell lines. MG63 is an osteosarcoma cell line, and HS-5 is a human bone marrow stroma cell line. […] Actin is provided as a control. (B) Results of MTT dye assays of MM cell lines. […] RUO is “relative units optical”. (C) Apoptosis in OPM and RPMI cell lines at increasing concentrations of 3α-aminocholestane.

Assay [3] concerns the target T1, SHIP1. Nature of the assay: Malachite Green phosphate release assay, SHIP1. The note with it: at 1 mM. It is filed as biochemical.

As a reminder, the inhibition is the percentage by which the read-out fell short of the control. As to `CC(C)CCC[C@@H](C)[C@H]1CC[C@H]2[C@@H]3CC[C@H]4C[C@H](N)CC[C@]4(C)[C@H]3CC[C@]12C` [NSC23922, (3R,5S,8R,9S,10S,13R,14S,17R)-10,13-dimethyl-17-[(2R)-6-methylheptan-2-yl]-2,3,4,5,6,7,8,9,11,12,14,15,16,17-tetradecahydro-1H-cyclopenta[a]phenanthren-3-amine], on SHIP1 [1], the inhibition at 10 µM turned out to be 50%. The “apoptosis (percent annexin positive cells)” value in assay [2] is “apoptosis occurs”. Also, the “inhibition of SHIP1” value against SHIP1 [3] is on record as “full inhibition”.

(Values after patent US9006221B2, “Method of modulating ship activity” (H. Lee Moffitt Cancer Center and Reserach Institute, Inc., priority 2008, dated 2015).)
